Publication PMC7402526, “An in vitro quantitative systems pharmacology approach for deconvolving mechanisms of drug-induced, multilineage cytopenias” (PLoS Computational Biology, 2020)

How the values were obtained:
Format in all cases: cell-based, human
[1] = test system: monocyte progenitors (monocyte prog); experiment: MLTA, MonoP: concentration-response and QSP model fit; settings: Homo sapiens, Monocyte
Method: (§1) A custom optimized cytokine cocktail was developed using commercially available cytokines (Peprotech, New Jersey) to facilitate simultaneous multi-lineage differentiation and self-renewal of freeze-thawed primary human bone marrow-derived CD34+ cells in SFEM II media (cells and media from StemCell Technologies, Vancouver). Cultures were carried out in ultra-low attachment 96-well plates (Corning, New York) with test article added on day 0 and cultured at 37°C, 85% relative humidity, and 5% CO2 for six days before interrogating drug impact via 17-parameter flow cytometry.
(§2) The flow cytometry panel used to define hematopoietic subsets was composed of CD34-PECy7, CD90-PECY5, CD38-AF488, CD371-PE, CD45Ra-BV421, CD14-BV605, CD42b-AF647, CD10-PEDazzle594, CD235a-PerCPCy5.5 (BioLegend, California), CD15-BUV395, CD41a-APCH7, CD71-BV786 (BD Biosciences, California), and DAPI for dead cell exclusion (ThermoFisher, California). In short, Day 6 cells were harvested, FcR-blocked (FcR binding inhibitor, ThermoFisher), surface-stained, then analyzed in a buffer containing TruCount Control Beads using a BD LSR Fortessa SORP fitted with a high-throughput sampler (BD Biosciences, California). Data was analyzed in Diva 6.0.2 and exported to CSV where after all cell data was transformed to cell per mL then normalized on a per-donor basis to untreated control wells to determine drug impact.
(§3) Donor material was collected and cultured as described above. The number of replicate donor samples per drug ranged from 2–7 and varied per drug (S1 Table). Drug treatment was added at time 0 and cells were maintained in culture for 6 days. Concentrations tested for each drug compound are contained in S1 Table. Concentrations were selected to span a range that is clinically useful. Following treatment, cell populations were measured using flow cytometry. We extracted cell counts from flow cytometry data, normalized to bead counts, and corrected for well volume.
(§4) Each well was normalized to the average of six vehicle control wells. For drugs that were tested across multiple runs of the assay, vehicle-normalized donor data were pooled, and we used the average of these pooled data for further modeling. Normalized data used as model inputs are included in S1 Table.
(§5) We implemented drug effects using an Emax model for the drug’s effect on each cell type. The 13 maximum effect parameters (EmaxT,C) are unitless and can vary between 0 and 2 and where a subscript, C, represents one of the previously described 13 cell types. We adapted a traditional Emax model using the equations below. We interpreted EmaxT values less than or equal to one as anti-proliferative, and EmaxT values greater than one as indicating a cell-killing mechanism in addition to anti-proliferation. The relationships for these effects are included in the model using the following equations. Eq 2 describes the drug anti-proliferative effect in the net proliferation rate for a given cell type. Eq 3 describes the cell-killing EmaxCK effect.
(§6) Towards the estimation of mechanistic parameters, we considered different formulations: (a) weighting the objective value to prioritize fitting dead cells and (b) using regularization methodology to encourage a parsimonious solution. We assessed the contributions of these formulations using mean-squared error and goodness of fit plots for drugs with known mechanisms. […] Further, we used L1 regularization to penalize parameters […] to help identify a parsimonious set of parameters to explain drug effects.

[2] = test system: granulocyte progenitor (Gran-lin prog); experiment: MLTA, GranP: concentration-response and QSP model fit; settings: Homo sapiens
Method: as §1, §2, §3, §4, §5, §6

[3] = test system: early erythroid cells (Eryth I); experiment: MLTA, ErythI: concentration-response and QSP model fit; settings: Homo sapiens
Method: as §1, §2, §3, §4, §5, §6

[4] = test system: granulocyte-macrophage progenitor (GMPs); experiment: MLTA, GMPs: concentration-response and QSP model fit; settings: Homo sapiens; QSP model parameter, sheet EC50_parameters; GMPs
Method: as §1, §2, §3, §4, §5, §6

monocytes (monocyte-lin) = experiment: MLTA, Mono: concentration-response and QSP model fit; settings: Homo sapiens, Monocyte
Method: as §1, §2, §3, §4, §5, §6

[5] = test system: late erythroid cells (Eryth II); experiment: MLTA, ErythII: concentration-response and QSP model fit; settings: Homo sapiens
Method: as §1, §2, §3, §4, §5, §6

[6] = test system: hematopoietic stem cells (HSCs); experiment: Multi-lineage toxicity assay (MLTA), HSCs: concentration-response and QSP model fit; settings: Homo sapiens, Hematopoietic stem cell
Method: as §1, §2, §3, §4, §5, §6

MK cells (MK-lin) = experiment: MLTA, MK: concentration-response and QSP model fit; settings: Homo sapiens
Method: as §1, §2, §3, §4, §5, §6

[7] = test system: multi-potent progenitors (MPPs); experiment: MLTA, MPPs: concentration-response and QSP model fit; settings: Homo sapiens
Method: as §1, §2, §3, §4, §5, §6

B cells (B-lin) = experiment: MLTA, B-lin: concentration-response and QSP model fit; settings: Homo sapiens, B-cell
Method: as §1, §2, §3, §4, §5, §6

[8] = test system: neutrophils (neutrophil-lin); experiment: MLTA, Neut: concentration-response and QSP model fit; settings: Homo sapiens, Neutrophil
Method: as §1, §2, §3, §4, §5, §6

[9] = test system: lymphocyte progenitors (LymP); experiment: MLTA, LymP: concentration-response and QSP model fit; settings: Homo sapiens, Lymphocyte
Method: as §1, §2, §3, §4, §5, §6

granulocytes (Gran-lin) = experiment: MLTA, Gran: concentration-response and QSP model fit; settings: Homo sapiens
Method: as §1, §2, §3, §4, §5, §6

EC50 ([1]; QSP model parameter, sheet EC50_parameters, MonoP, read-out: EC50MonoP): 70.9 nM
EC50 ([2]; QSP model parameter, sheet EC50_parameters, GranP, read-out: EC50GranP): 132 nM
EC50 ([3]; QSP model parameter, sheet EC50_parameters, Erythroid I, read-out: EC50ErythroidI): 60.8 nM
EC50 [4]: 40.6 nM
EC50 (monocytes (monocyte-lin); QSP model parameter, sheet EC50_parameters, Mono): 83.6 nM
EC50 ([5]; QSP model parameter, sheet EC50_parameters, Erythroid II, read-out: EC50ErythroidII): 56.5 nM
EC50 (MK cells (MK-lin); QSP model parameter, sheet EC50_parameters, MK): 38.3 nM
EC50 ([7]; QSP model parameter, sheet EC50_parameters, MPPs): 33.1 nM
EC50 (B cells (B-lin); QSP model parameter, sheet EC50_parameters, B): 36.2 nM
EC50 ([8]; QSP model parameter, sheet EC50_parameters, Neut): 108 nM
EC50 ([9]; QSP model parameter, sheet EC50_parameters, LymP): 112 nM
EC50 (granulocytes (Gran-lin); QSP model parameter, sheet EC50_parameters, Gran): 68.6 nM
SMILES: CC(C)C[C@H](NC(=O)[C@H](Cc1ccccc1)NC(=O)c1cnccn1)B(O)O [Bortezomib]
Emax ([1]; 144 h, parameter from QSP model fitting, read-out: Emax_drug_MonoP): 0.17%
Emax ([2]; 144 h, parameter from QSP model fitting, read-out: Emax_drug_GranP): 0.06%
Emax ([3]; 144 h, parameter from QSP model fitting, read-out: Emax_drug_ErythroidI): 0.16%
Emax (monocytes (monocyte-lin); 144 h, parameter from QSP model fitting, read-out: Emax_drug_Mono): 39%
Emax ([5]; 144 h, parameter from QSP model fitting, read-out: Emax_drug_ErythroidII): 19.1%
Emax ([6]; 144 h, parameter from QSP model fitting, read-out: Emax_drug_HSC): 134%
EC50 ([6]; QSP model parameter, sheet EC50_parameters, HSCs): 105 nM
Emax (MK cells (MK-lin); 144 h, parameter from QSP model fitting, read-out: Emax_drug_MK): 35.3%
Emax ([7]; 144 h, parameter from QSP model fitting, read-out: Emax_drug_MPP): 0.3%
Emax (B cells (B-lin); 144 h, parameter from QSP model fitting, read-out: Emax_drug_B): 89.8%
Emax ([8]; 144 h, parameter from QSP model fitting, read-out: Emax_drug_Neut): 23.9%
Emax ([9]; 144 h, parameter from QSP model fitting, read-out: Emax_drug_LymP): 0.16%
Emax (granulocytes (Gran-lin); 144 h, parameter from QSP model fitting, read-out: Emax_drug_Gran): 184%
